In PubChem BioAssay AID1963439 (Molecular Pharmacology Branch, DTP, NCI, 2024):

Tested on: NCI-H196 complex spheroids with HUVEC/MSC, growth % T/C
Assay: Anticancer human tumor NCI-H196 cell line growth inhibition [Asc];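 further: spheroids exposed to compound for 7 days before measurement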;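 on viability, T/C: 100% = DMSO vehicle control wells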
Details: for IC50: curve of first compound; for viability, T/C: stronger effect = lower value
How it was run: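 Spheroid model: tumor line + HUVEC + hMSC. Single agents and combinations; top conc. at/near clinical Cmax (10 microM if undetermined), half-log dilutions. DMSO stocks at 800-fold test concentration.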

[1] = second compound 0.01 µM, first compound 0.00949 µM
[2] = second compound 0.01 µM, first compound 0.03 µM
[3] = second compound 0.01 µM, first compound 0.0949 µM
[4] = second compound 0.01 µM, first compound 0.3 µM
[5] = second compound 0.01 µM, first compound 0.949 µM
[6] = second compound 0.01 µM, first compound 3 µM
[7] = second compound 0.0316 µM, first compound 0.00949 µM
[8] = second compound 0.0316 µM, first compound 0.03 µM
[9] = second compound 0.0316 µM, first compound 0.0949 µM
[10] = second compound 0.0316 µM, first compound 0.3 µM
[11] = second compound 0.0316 µM, first compound 0.949 µM
[12] = second compound 0.0316 µM, first compound 3 µM
[13] = second compound 0.1 µM, first compound 0.00949 µM
[14] = second compound 0.1 µM, first compound 0.03 µM
[15] = second compound 0.1 µM, first compound 0.0949 µM
[16] = second compound 0.1 µM, first compound 0.3 µM
[17] = second compound 0.1 µM, first compound 0.949 µM
[18] = second compound 0.1 µM, first compound 3 µM
[19] = second compound 0.316 µM, first compound 0.00949 µM
[20] = second compound 0.316 µM, first compound 0.03 µM
[21] = second compound 0.316 µM, first compound 0.0949 µM
[22] = second compound 0.316 µM, first compound 0.3 µM
[23] = second compound 0.316 µM, first compound 0.949 µM
[24] = second compound 0.316 µM, first compound 3 µM
[25] = second compound 1 µM, first compound 0.00949 µM
[26] = second compound 1 µM, first compound 0.03 µM
[27] = second compound 1 µM, first compound 0.0949 µM
[28] = second compound 1 µM, first compound 0.3 µM
[29] = second compound 1 µM, first compound 0.949 µM
[30] = second compound 1 µM, first compound 3 µM

## CCN1C(C(=O)NC23CCC(C(=O)O)(CC2)CC3)C(c2cccc(Cl)c2F)C2(C(=O)Nc3cc(Cl)ccc32)C12CCCCC2 (stereo not given) + CNC(C)C(=O)NC1CN(S(=O)(=O)c2cccc(S(=O)(=O)N3CCC4CCC(C(=O)NC(c5ccccc5)c5ccccc5)N4C(=O)C(NC(=O)C(C)NC)C3)c2)CCC2CCC(C(=O)NC(c3ccccc3)c3ccccc3)N2C1=O
Second compound 0.01 µM
  IC50: < 9.49 nM
Second compound 0.0316 µM
  IC50: < 9.49 nM
Second compound 0.1 µM
  IC50: < 9.49 nM
Second compound 0.316 µM
  IC50: < 9.49 nM
Second compound 1 µM
  IC50: < 9.49 nM
[1]
  viability, T/C: 6.77%
[2]
  viability, T/C: 8.8%
[3]
  viability, T/C: 6.77%
[4]
  viability, T/C: 4.95%
[5]
  viability, T/C: 4.31%
[6]
  viability, T/C: 2.99%
[7]
  viability, T/C: 4.48%
[8]
  viability, T/C: 6.6%
[9]
  viability, T/C: 5.08%
[10]
  viability, T/C: 5.41%
[11]
  viability, T/C: 2.77%
[12]
  viability, T/C: 1.77%
[13]
  viability, T/C: 3.71%
[14]
  viability, T/C: 4.01%
[15]
  viability, T/C: 3.17%
[16]
  viability, T/C: 3.11%
[17]
  viability, T/C: 1.37%
[18]
  viability, T/C: 2.04%
[19]
  viability, T/C: 2.48%
[20]
  viability, T/C: 4.45%
[21]
  viability, T/C: 3.05%
[22]
  viability, T/C: 1.97%
[23]
  viability, T/C: 0.96%
[24]
  viability, T/C: 1.45%
[25]
  viability, T/C: 2.97%
[26]
  viability, T/C: 4.34%
[27]
  viability, T/C: 2.12%
[28]
  viability, T/C: 1.73%
[29]
  viability, T/C: 1.39%
[30]
  viability, T/C: 1.39%

## Cc1nc(N2CCC3(CC2)COC(C)C3N)c(CO)nc1Sc1ccnc(N)c1Cl (stereo not given) + CNC(C)C(=O)NC1CN(S(=O)(=O)c2cccc(S(=O)(=O)N3CCC4CCC(C(=O)NC(c5ccccc5)c5ccccc5)N4C(=O)C(NC(=O)C(C)NC)C3)c2)CCC2CCC(C(=O)NC(c3ccccc3)c3ccccc3)N2C1=O
Second compound 0.01 µM
  IC50: < 9.49 nM
Second compound 0.0316 µM
  IC50: < 9.49 nM
Second compound 0.1 µM
  IC50: < 9.49 nM
Second compound 0.316 µM
  IC50: < 9.49 nM
Second compound 1 µM
  IC50: < 9.49 nM
[1]
  viability, T/C: 11%
[2]
  viability, T/C: 7.94%
[3]
  viability, T/C: 5.15%
[4]
  viability, T/C: 6.8%
[5]
  viability, T/C: 6.64%
[6]
  viability, T/C: 6.64%
[7]
  viability, T/C: 4.39%
[8]
  viability, T/C: 3.45%
[9]
  viability, T/C: 4.36%
[10]
  viability, T/C: 3.89%
[11]
  viability, T/C: 4.66%
[12]
  viability, T/C: 4.54%
[13]
  viability, T/C: 3.47%
[14]
  viability, T/C: 3.41%
[15]
  viability, T/C: 4.81%
[16]
  viability, T/C: 3.67%
[17]
  viability, T/C: 3.69%
[18]
  viability, T/C: 3.62%
[19]
  viability, T/C: 3.86%
[20]
  viability, T/C: 6.04%
[21]
  viability, T/C: 2.84%
[22]
  viability, T/C: 2.59%
[23]
  viability, T/C: 3.03%
[24]
  viability, T/C: 3.1%
[25]
  viability, T/C: 4.12%
[26]
  viability, T/C: 2.58%
[27]
  viability, T/C: 2.94%
[28]
  viability, T/C: 2.39%
[29]
  viability, T/C: 2.12%
[30]
  viability, T/C: 1.83%

## O=C(c1cc(Cc2n[nH]c(=O)c3ccccc23)ccc1F)N1CCN(C(=O)C2CC2)CC1 + Cc1c(S(C)(=O)=O)c(-c2cc(F)cc(N3CCN(c4ccc(NS(=O)(=O)c5ccc(NC(CCN6CCC(C(=O)OCCCP(=O)(O)O)CC6)CSc6ccccc6)c(S(=O)(=O)C(F)(F)F)c5)cc4)CC3)c2)c(-c2ccc(Cl)cc2)n1C(C)C
Second compound 0.1 µM
  IC50: > 10000 nM
Second compound 0.316 µM
  IC50: > 10000 nM
Second compound 1 µM
  IC50: > 10000 nM
Second compound 3.16 µM
  IC50: > 10000 nM
Second compound 10 µM
  IC50: > 10000 nM
Second compound 0.1 µM, first compound 0.0316 µM
  viability, T/C: 98%
Second compound 0.1 µM, first compound 0.1 µM
  viability, T/C: 93.4%
Second compound 0.1 µM, first compound 0.316 µM
  viability, T/C: 85.8%
Second compound 0.1 µM, first compound 1 µM
  viability, T/C: 95.6%
Second compound 0.1 µM, first compound 3.16 µM
  viability, T/C: 99.8%
Second compound 0.1 µM, first compound 10 µM
  viability, T/C: 89.5%
Second compound 0.316 µM, first compound 0.0316 µM
  viability, T/C: 88.8%
Second compound 0.316 µM, first compound 0.1 µM
  viability, T/C: 102%
Second compound 0.316 µM, first compound 0.316 µM
  viability, T/C: 103%
Second compound 0.316 µM, first compound 1 µM
  viability, T/C: 88.3%
Second compound 0.316 µM, first compound 3.16 µM
  viability, T/C: 94.3%
Second compound 0.316 µM, first compound 10 µM
  viability, T/C: 87.1%
Second compound 1 µM, first compound 0.0316 µM
  viability, T/C: 91.4%
Second compound 1 µM, first compound 0.1 µM
  viability, T/C: 96.9%
Second compound 1 µM, first compound 0.316 µM
  viability, T/C: 88.2%
Second compound 1 µM, first compound 1 µM
  viability, T/C: 89%
Second compound 1 µM, first compound 3.16 µM
  viability, T/C: 83.5%
Second compound 1 µM, first compound 10 µM
  viability, T/C: 81.2%
Second compound 3.16 µM, first compound 0.0316 µM
  viability, T/C: 89.9%
Second compound 3.16 µM, first compound 0.1 µM
  viability, T/C: 83.6%
Second compound 3.16 µM, first compound 0.316 µM
  viability, T/C: 84.5%
Second compound 3.16 µM, first compound 1 µM
  viability, T/C: 86%
Second compound 3.16 µM, first compound 3.16 µM
  viability, T/C: 78.3%
Second compound 3.16 µM, first compound 10 µM
  viability, T/C: 66.3%
Second compound 10 µM, first compound 0.0316 µM
  viability, T/C: 73.2%
Second compound 10 µM, first compound 0.1 µM
  viability, T/C: 74.9%
Second compound 10 µM, first compound 0.316 µM
  viability, T/C: 71.6%
Second compound 10 µM, first compound 1 µM
  viability, T/C: 71.8%
Second compound 10 µM, first compound 3.16 µM
  viability, T/C: 74%
Second compound 10 µM, first compound 10 µM
  viability, T/C: 57.9%
